The results in this text go back to patent US12187728B2 (Raze Therapeutics, Inc., priority 2015, dated 2025).

This experiment has as its target T1, Human MTHFD2 (Homo sapiens, UniProt P13995).
T1 construct: residues 36-350 in Uniport ID P13995; His6 (N); made in house; host or cells: E. coli
T1 sequence (P13995 36-350): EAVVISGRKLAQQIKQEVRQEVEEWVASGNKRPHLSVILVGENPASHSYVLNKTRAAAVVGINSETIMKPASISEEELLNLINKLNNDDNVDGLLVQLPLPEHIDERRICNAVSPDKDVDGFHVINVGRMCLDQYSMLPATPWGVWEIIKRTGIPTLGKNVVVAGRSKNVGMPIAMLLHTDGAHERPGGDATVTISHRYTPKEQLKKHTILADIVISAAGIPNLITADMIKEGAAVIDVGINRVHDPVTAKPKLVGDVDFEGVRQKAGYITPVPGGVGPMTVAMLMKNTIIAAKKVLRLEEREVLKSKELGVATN
As to the kind of experiment: MTHFD2 Activity Assay (dehydrogenase activity, diaphorase/resazurin coupled fluorescence). Type of experiment: biochemical. The settings on record: inhibitory activity (IC50 and/or binding constant); 0.2 nM MTHFD2, 11 concentrations. From the text: Human MTHFD2 (residues 36-350 in Uniport ID P13995) was expressed as an N-terminal His6 tagged protein and purified in E. coli using nickel capture followed by size-exclusion chromatography.
MTHFD2 dehydrogenase activity oxidizes methylene tetrahyrofolate to methenyl-tetrahydrofolate with the concomitant reduction of NAD to NADH. MTHFD2 dehydrogenase activity was followed by coupling the generation of NADH to diaphorase catalyzed […] of resazurin to fluorescent resorufin. Briefly, control (DMSO) or compound was incubated with 0.2 nM MTHFD2 for 15 minutes in 10.5 μl assay buffer containing 100 mM Hepes, pH 8.0, 5 mM MgCl2, 5 mM KH2PO4, 0.05% BSA, 0.01% Tween-20 in a 384 well Griener, low volume, black plate. 10 μl of substrate buffer containing 70 μM CH2-THF, 1 mM NAD^+, 100 μM Resazurin and 0.42 mg/ml diaphorase was then added to initiate the reaction and the reaction plate was incubated for 30 minutes. 5 μl of 250 mM EDTA was then added to each well to stop the reaction and MTHFD2 activity was quantified by measuring resorufin fluorescence emission at 598 nm following excitation at 525 nm. Activity in positive control wells containing the complete reaction mixture and DMSO alone was set to 100% while activity in negative control wells with the complete reaction mix without MTHFD2 was set to 0%. 11 concentrations of each compound were tested and the fluorescent data at each concentration was normalized to the positive and negative controls and represented as % inhibition. Median inhibitory concentration (IC50) was calculated by fitting % inhibition at each concentration to a 4 parameter logistic fit equation using Graphpad Prizm.
The compound numbers correspond to the compound numbers in Table A (i.e., the example numbers).
A general note: Alamar Blue is a resazurin reagent that responds to reducing activity.
The IC50 is the concentration that gives 50% inhibition. Higher therefore signals lower potency. Compound `Cn1c(N[C@H]2CCC[C@@H](O)C2)nc2c1c(=O)n(Cc1ccc(Cl)c(Cl)c1)c(=O)n2C` (single isomer, unassigned) [Example 79, 1-(3,4-dichlorobenzyl)-8-((1S,3R)-3-hydroxycyclohexylamino)-3,7-dimethyl-1H-purine-2,6(3H,7H)-dione or 1-(3,4-dichlorobenzyl)-8-((1R,3S)-3-hydroxycyclohexylamino)-3,7-dimethyl-1H-purine-2,6(3H,7H)-dione] came in with an IC50 of 10 to 1000 nM. `Cn1c(N[C@H]2CCC[C@H](O)C2)nc2c1c(=O)n(Cc1ccc(Cl)c(Cl)c1)c(=O)n2C` (single isomer, unassigned) [Example 80, 1-(3,4-dichlorobenzyl)-8-((1S,3S)-3-hydroxycyclohexylamino)-3,7-dimethyl-1H-purine-2,6(3H,7H)-dione or 1-(3,4-dichlorobenzyl)-8-((1R,3R)-3-hydroxycyclohexylamino)-3,7-dimethyl-1H-purine-2,6(3H,7H)-dione] registered an IC50 of 10 to 1000 nM.

In the case of `Cn1c(N[C@H]2CCC[C@H](O)C2)nc2c1c(=O)n(Cc1ccc(Cl)c(Cl)c1)c(=O)n2C` (single isomer, unassigned) [Example 81, 1-(3,4-dichlorobenzyl)-8-((1S,3S)-3-hydroxycyclohexylamino)-3,7-dimethyl-1H-purine-2,6(3H,7H)-dione or 1-(3,4-dichlorobenzyl)-8-((1R,3R)-3-hydroxycyclohexylamino)-3,7-dimethyl-1H-purine-2,6(3H,7H)-dione], the IC50 lay in the range of 10 to 1000 nM. The value for `Cn1c(N[C@H]2CCC(=O)NC2)nc2c1c(=O)n(Cc1ccc(Cl)c(Cl)c1)c(=O)n2C` (single isomer, unassigned) [Example 82, (S)-1-(3,4-dichlorobenzyl)-3,7-dimethyl-8-(6-oxopiperidin-3-ylamino)-1H-purine-2,6(3H,7H)-dione or (R)-1-(3,4-dichlorobenzyl)-3,7-dimethyl-8-(6-oxopiperidin-3-ylamino)-1H-purine-2,6(3H,7H)-dione] was 10 to 1000 nM; that for `Cn1c(N[C@H]2CCC(=O)NC2)nc2c1c(=O)n(Cc1ccc(Cl)c(Cl)c1)c(=O)n2C` (single isomer, unassigned) [Example 83, (5)-1-(3,4-dichlorobenzyl)-3,7-dimethyl-8-(6-oxopiperidin-3-ylamino)-1H-purine-2,6(3H,7H)-dione or (R)-1-(3,4-dichlorobenzyl)-3,7-dimethyl-8-(6-oxopiperidin-3-ylamino)-1H-purine-2,6(3H,7H)-dione] was 10 to 1000 nM. In the case of `Cn1c(N[C@H]2CC[C@@H](O)C2)nc2c1c(=O)n(Cc1ccc(C(F)(F)F)cc1)c(=O)n2C` (single isomer, unassigned) [Example 133, 8-((1S,3R)-3-hydroxycyclopentylamino)-3,7-dimethyl-1-(4-(trifluoromethyl)benzyl)-1H-purine-2,6(3H,7H)-dione or 8-((1R,3S)-3-hydroxycyclopentylamino)-3,7-dimethyl-1-(4-(trifluoromethyl)benzyl)-1H-purine-2,6(3H,7H)-dione] it was 1000 to 5000 nM; in that of `Cn1c(N[C@@H]2CC[C@@H](O)C2)nc2c1c(=O)n(Cc1ccc(C(F)(F)F)cc1)c(=O)n2C` (single isomer, unassigned) [Example 144, 8-((1R,3R)-3-hydroxycyclopentylamino)-3,7-dimethyl-1-(4-(trifluoromethyl)benzyl)-1H-purine-2,6(3H,7H)-dione or 8-((1S,3S)-3-hydroxycyclopentylamino)-3,7-dimethyl-1-(4-(trifluoromethyl)benzyl)-1H-purine-2,6(3H,7H)-dione], 1000 to 5000 nM. Consider `Cn1c(N[C@H]2CC[C@@H](O)C2)nc2c1c(=O)n(Cc1ccc(C(F)(F)F)cc1)c(=O)n2C` (single isomer, unassigned) [Example 156, 8-((1S,3R)-3-hydroxycyclopentylamino)-3,7-dimethyl-1-(4-(trifluoromethyl)benzyl)-1H-purine-2,6(3H,7H)-dione or 8-((1R,3S)-3-hydroxycyclopentylamino)-3,7-dimethyl-1-(4-(trifluoromethyl)benzyl)-1H-purine-2,6(3H,7H)-dione], for which the IC50 is 1000 to 5000 nM. As for `Cn1c(N[C@@H]2CCC[C@H](C(=O)O)C2)nc2c1c(=O)n(Cc1ccc(Cl)c(Cl)c1)c(=O)n2C` (single isomer, unassigned) [Example 184, (1S,3R)-3-(1-(3,4-dichlorobenzyl)-3,7-dimethyl-2,6-dioxo-2,3,6,7-tetrahydro-1H-purin-8-ylamino)cyclohexanecarboxylic acid or (1R,3S)-3-(1-(3,4-dichlorobenzyl)-3,7-dimethyl-2,6-dioxo-2,3,6,7-tetrahydro-1H-purin-8-ylamino)cyclohexanecarboxylic acid], the IC50 was 10 to 1000 nM. In the case of `Cn1c(N[C@H]2CCC[C@H](C(=O)O)C2)nc2c1c(=O)n(Cc1ccc(Cl)c(Cl)c1)c(=O)n2C` (single isomer, unassigned) [Example 186, (1S,3S)-3-(1-(3,4-dichlorobenzyl)-3,7-dimethyl-2,6-dioxo-2,3,6,7-tetrahydro-1H-purin-8-ylamino)cyclohexanecarboxylic or (1R,3R)-3-(1-(3,4-dichlorobenzyl)-3,7-dimethyl-2,6-dioxo-2,3,6,7-tetrahydro-1H-purin-8-ylamino)cyclohexanecarboxylic acid], the IC50 lay within 10 to 1000 nM. As to `Cn1c(N[C@@H]2CCC[C@H](C(=O)O)C2)nc2c1c(=O)n(Cc1ccc(Cl)c(Cl)c1)c(=O)n2C` (single isomer, unassigned) [Example 187, (1S,3R)-3-(1-(3,4-dichlorobenzyl)-3,7-dimethyl-2,6-dioxo-2,3,6,7-tetrahydro-1H-purin-8-ylamino)cyclohexanecarboxylic acid or (1R,3S)-3-(1-(3,4-dichlorobenzyl)-3,7-dimethyl-2,6-dioxo-2,3,6,7-tetrahydro-1H-purin-8-ylamino)cyclohexanecarboxylic acid], the IC50 was in the range of 10 to 1000 nM. The value for `Cn1c(N[C@H]2CCC[C@H](C(=O)O)C2)nc2c1c(=O)n(Cc1ccc(Cl)c(Cl)c1)c(=O)n2C` (single isomer, unassigned) [Example 209, (1S,3S)-3-(1-(3,4-dichlorobenzyl)-3,7-dimethyl-2,6-dioxo-2,3,6,7-tetrahydro-1H-purin-8-ylamino)cyclohexanecarboxylic or (1R,3R)-3-(1-(3,4-dichlorobenzyl)-3,7-dimethyl-2,6-dioxo-2,3,6,7-tetrahydro-1H-purin-8-ylamino)cyclohexanecarboxylic acid] was 10 to 1000 nM; that for `Cn1c(N[C@H]2CCC(=O)NC2)nc2c1c(=O)n(Cc1cc3ccccc3[nH]1)c(=O)n2C` (single isomer, unassigned) [Example 228, (S)-1-((1H-indol-2-yl)methyl)-3,7-dimethyl-8-(6-oxopiperidin-3-ylamino)-1H-purine-2,6(3H,7H)-dione or (R)-1-((1H-indol-2-yl)methyl)-3,7-dimethyl-8-(6-oxopiperidin-3-ylamino)-1H-purine-2,6(3H,7H)-dione] was 1000 to 5000 nM.

Turning to `Cn1c(Nc2ccnc([C@@H]3C[C@H]3C(=O)O)c2)nc2c1c(=O)n(Cc1ccc(Cl)c(Cl)c1)c(=O)n2C` (single isomer, unassigned) [Example 300, (1R,2R)-2-(4-((1-(3,4-dichlorobenzyl)-3,7-dimethyl-2,6-dioxo-2,3,6,7-tetrahydro-1H-purin-8-yl)amino)pyridin-2-yl)cyclopropanecarboxylic acid or (1S,2S)-2-(4-((1-(3,4-dichlorobenzyl)-3,7-dimethyl-2,6-dioxo-2,3,6,7-tetrahydro-1H-purin-8-yl)amino)pyridin-2-yl)cyclopropanecarboxylic acid], the IC50 lay in the range of 10 to 1000 nM. In the case of `Cn1c(Nc2ccnc([C@H]3C[C@@H]3C(=O)O)c2)nc2c1c(=O)n(Cc1ccc(Cl)c(Cl)c1)c(=O)n2C` (single isomer, unassigned) [Example 301, (1S,2S)-2-(4-((1-(3,4-dichlorobenzyl)-3,7-dimethyl-2,6-dioxo-2,3,6,7-tetrahydro-1H-purin-8-yl)amino)pyridin-2-yl)cyclopropanecarboxylic acid or (1R,2R)-2-(4-((1-(3,4-dichlorobenzyl)-3,7-dimethyl-2,6-dioxo-2,3,6,7-tetrahydro-1H-purin-8-yl)amino)pyridin-2-yl)cyclopropanecarboxylic acid] it was 10 to 1000 nM.
